Assay [1] relates to MCF7 cells stably expressing GABRA3. In words: Transwell migration assay, MCF7-GABRA3 cells with AKT inhibitor. The class given is cell-based, human. Conditions: different concentrations of the inhibitor vs control DMSO, FIG. 11A. How it is done: (§1) In vitro cell migration assays were performed as described previously (21, 22) using Trans-well chambers ([…] pore size; Costar). Cells were allowed to grow to subconfluency (˜75-80%) and were serum-starved for 24 h. After detachment with trypsin, cells were washed with PBS, resuspended in serum-free medium and 250 μl cell suspensions (2×10^5 cells ml−1) was added to the upper chamber. Complete medium was added to the bottom wells of the chambers. The cells that had not migrated were removed from the upper face of the filters using cotton swabs, and the cells that had migrated to the lower face of the filters were fixed with 5% glutaraldehyde solution and stained with 0.5% solution of Toluidine Blue in 2% sodium carbonate. Images of three random ×10 fields were captured from each membrane and the number of migratory cells was counted. […]
(§2) It has previously been shown that A-to-I edited GABRA3 affected the intracellular trafficking of GABRA3 (18), which is critical for the localization of GABRA3 on cell membrane. We determined the expression of GABRA3 on cell surface of breast cancer cells using FACS analysis. […] Since AKT pathway is critical in both breast cancer metastasis and therapy resistance (27-29), we determined the effect of GABRA3 on AKT activation and whether AKT pathway mediates GABRA3 functions in migration and invasion. […]

Assay [2] has the same test system. In words: Matrigel invasion assay, MCF7-GABRA3 cells with AKT inhibitor. Conditions: different concentrations of the inhibitor vs control DMSO, FIG. 11B. The class given is cell-based, human. How it is done:
as §1, §2

A further assay concerns melanoma. Conditions: melanoma treatment, clinical trials; cited from earlier work.
Assay [3] has as its system MDA-MB-436 cells. In words: Boyden chamber migration assay, MDA-MB-436 cells with GABRA3 inhibitors. Format: cell-based, human. Conditions: various concentrations (10 nM-10 μM), FIG. 12. The method, then: (§3) MDA-MB-436 cells were treated with GABRA3 inhibitors picrotoxin or flumazenil at various concentrations (10 nM-10 μM). Cells were then subjected to Boyden chamber assays (see, e.g., Ostrander et al, Cancer Res May 1, 2007 67; 4199, which is incorporated herein by reference).

For assay [4], the system named is MDA-MB-436 cells. In words: Boyden chamber invasion assay, MDA-MB-436 cells with GABRA3 inhibitors. Conditions: various concentrations (10 nM-10 μM), FIG. 12. Format: cell-based, human. The method, then: as §3

“Also recorded” adds a separate entry of the source.

`NC1(c2ccc(-c3nc4ccn5c(=O)[nH]nc5c4cc3-c3ccccc3)cc2)CCC1` [MK-2206]: in assay [1], the cell migration result is “inhibited cell migration and invasion in a dose-dependent manner; also recorded: suppressed”. Further, in assay [2], the cell invasion entry is “inhibited cell migration and invasion in a dose-dependent manner; also recorded: suppressed”.

For the compound `Nc1nc2ccc(OC(F)(F)F)cc2s1` [Riluzole], the anti-tumor activity entry in the assay on melanoma is recorded as “significant anti-tumor activity”.

In the case of `CCOC(=O)c1ncn2c1CN(C)C(=O)c1cc(F)ccc1-2` [flumazenil], the cell migration entry with MDA-MB-436 cells [3] was “suppress”. In the assay with MDA-MB-436 cells [4], the cell invasion result is recorded as “suppress”.

For the compound picrotoxin, the cell migration result with MDA-MB-436 cells [3] was “suppress”. For the same compound, the cell invasion entry in the assay with MDA-MB-436 cells [4] was “suppress”.

Source of the values: patent publication US20170198359A1, “METHODS AND COMPOSITIONS FOR TREATMENT OR DIAGNOSIS OF CANCERS RELATED TO GABRA3” (The Wistar Institute of Anatomy and Biology, priority 2016, published 2017).
